Test results as given in the NIST ThermoML archive (doi:10.1016/j.jct.2016.08.006).
± gives the expanded uncertainty stated by the source.

Experiment: molar heat capacity at constant pressure; xn = mol fraction of the nth substance listed
Details: 101.3 kPa, Liquid, Small sample (50 mg) DSC

NCCN1CCNCC1 [N-(β-aminoethyl)piperazine)] + O
molar heat capacity at constant pressure [J/K/mol]
Details | x1 = 0.1 | x1 = 0.3 | x1 = 0.5 | x1 = 0.7 | x1 = 0.9 | x1 = 1
303.2 K | 109.7 ± 4.5 | 157.3 ± 5.7 | 202.1 ± 7 | 242.8 ± 8.3 | 278.3 ± 9.4 | 289.7 ± 9.6
308.2 K | 110.2 ± 4.5 | 158.5 ± 5.7 | 203.2 ± 7.1 | 244.3 ± 8.3 | 279.8 ± 9.4 | 290.8 ± 9.6
313.2 K | 110.7 ± 4.6 | 160.3 ± 5.8 | 204.8 ± 7.1 | 246.3 ± 8.4 | 281.6 ± 9.5 | 293.1 ± 9.7
318.2 K | 111 ± 4.6 | 162.1 ± 5.9 | 206.3 ± 7.2 | 248.1 ± 8.5 | 283.1 ± 9.5 | 294.7 ± 9.8
323.2 K | 111.4 ± 4.7 | 164.3 ± 6 | 208.5 ± 7.2 | 250.6 ± 8.5 | 285.2 ± 9.6 | 296.9 ± 9.8
328.2 K | 111.4 ± 4.7 | 165.7 ± 6 | 210 ± 7.3 | 252.5 ± 8.6 | 287 ± 9.7 | 298.5 ± 9.9
333.2 K | 111.6 ± 4.8 | 167.3 ± 6.1 | 211.8 ± 7.3 | 253.5 ± 8.6 | 289 ± 9.7 | 300.7 ± 10
338.2 K | 111.8 ± 4.8 | 168.7 ± 6.1 | 213.6 ± 7.4 | 254.5 ± 8.7 | 290.9 ± 9.8 | 302.2 ± 10
343.2 K | 112.4 ± 4.8 | 170.1 ± 6.2 | 215.2 ± 7.5 | 255.9 ± 8.7 | 292 ± 9.8 | 303.3 ± 10
348.2 K | 112.6 ± 4.9 | 171.4 ± 6.2 | 216.3 ± 7.5 | 256.2 ± 8.7 | 292.5 ± 9.8 | 303.6 ± 10
353.2 K | 112.9 ± 4.9 | 173.1 ± 6.3 | 217.6 ± 7.5 | 257.3 ± 8.7 | 293.7 ± 9.9 | 304.6 ± 10
